Results reported in US11858877B2 (priority 2019, dated 2024).

How the values were obtained:
U2OS cells = experiment: Compound toxicity comparison, LIVE/DEAD Cell Imaging Kit; format: cell-based, human; conditions: 10 μM, 2 h, 16 h or 24 h
Protocol: Cytotoxicity of the three compounds was compared with Bay 11-7082 (Cayman, 10010266), an inhibitor of the NF-κB pathway at working concentrations of 1-10 μM, using the LIVE/DEAD Cell Imaging Kit (488/570) (Invitrogen, R37601). For each condition, 15,000 U2OS cells were seeded in 200 μL of growth medium in each well of 96-well plate 48 h before microscopy. Next, medium was changed to medium containing either DMSO, 10 μM of indicated compound, or 10 μM of Bay 11-7082 for the indicated duration (2 h, 16 h, or 24 h). Before imaging, medium was changed to phenol red-free FluoBrite DMEM (Gibco, A18967-01) containing 300 ng/mL of Hoechst 33342, and 1:10000 of both Live Green and Dead Red dyes of the LIVE/DEAD Cell Imaging Kit. Cells were incubated for 60 minutes and imaged on the Delta Vision Elite imaging system at 20× magnification with a […] objective (0.45NA; Olympus). Analysis was done using Cell Profiler to segment cells and quantify median nuclear intensity values. Further analysis was performed using custom scripts in MATLAB. Data from biological triplicates were plotted as the mean ± SD.

[1] = target: T1, recombinant activated IKKβ (Homo sapiens, UniProt O14920); experiment: In vitro IKKβ kinase assay (ADP-Glo); format: biochemical; conditions: for IKKβ kinase activity: at 10-fold higher concentrations than used in cell-based experiments; for inhibitory activity over IKKβ kinase activity: at the concentrations used in this study
T1 construct: purchased Promega V4502
T1 sequence (O14920 1-756): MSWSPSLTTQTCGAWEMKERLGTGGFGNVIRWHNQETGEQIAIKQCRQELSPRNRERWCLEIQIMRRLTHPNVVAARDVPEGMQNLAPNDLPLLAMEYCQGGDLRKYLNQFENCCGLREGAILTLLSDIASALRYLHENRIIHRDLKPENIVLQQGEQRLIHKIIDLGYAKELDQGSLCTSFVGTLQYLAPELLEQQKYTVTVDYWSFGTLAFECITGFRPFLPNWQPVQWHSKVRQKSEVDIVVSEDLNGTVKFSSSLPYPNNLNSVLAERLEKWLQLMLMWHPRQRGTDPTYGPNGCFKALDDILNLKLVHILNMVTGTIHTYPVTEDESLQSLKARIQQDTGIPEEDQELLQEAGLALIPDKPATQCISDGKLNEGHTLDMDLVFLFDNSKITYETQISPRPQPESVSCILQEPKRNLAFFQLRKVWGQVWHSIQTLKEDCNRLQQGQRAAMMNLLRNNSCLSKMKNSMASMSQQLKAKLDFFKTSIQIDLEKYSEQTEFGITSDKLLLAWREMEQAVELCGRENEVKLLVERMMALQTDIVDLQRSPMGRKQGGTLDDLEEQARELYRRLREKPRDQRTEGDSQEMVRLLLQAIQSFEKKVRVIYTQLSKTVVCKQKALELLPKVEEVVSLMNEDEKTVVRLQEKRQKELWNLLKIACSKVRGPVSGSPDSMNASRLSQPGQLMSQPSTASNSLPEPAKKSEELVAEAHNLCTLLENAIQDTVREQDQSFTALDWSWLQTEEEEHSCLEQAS
Protocol: 1× kinase buffer A (40 mM Tris-HCl pH 7.4, 20 mM MgCl2, 0.1 mg/mL BSA, supplemented with 2 mM MnCl2, 2 mM DTT and 100 μM Sodium vanadate) was used to prepare all components of the reaction. All components were prepared in a 96-well plate and transferred to every other well of a 384-well opaque plate (Sigma-Aldrich, CLS3825-10EA) using a multichannel pipet. A 2.5× ATP/IKKtide substrate mix (62.5 μM ATP mixed with 0.5 μg/μL IKKtide) was prepared, and a 5× concentration of the indicated concentration of compounds in 0.5% DMSO, maintaining a final DMSO concentration of 0.1% in all reactions. […] The plate was briefly spun, and the reaction incubated at room temperature for 1 h. Next, 5 μL of ADP-Glo reagent were added to each well, spun and incubated for 40 minutes at room temperature. Finally, 10 μL of Kinase Detection Reagent were added to each well and incubated for 30 minutes at room temperature. Luminescence from each well was measured using an integration time of 500 ms in a M4 microplate reader (SpectraMax). Data from triplicate reactions were extracted and plotted.

[2] = system: IL1-induced dynamics of nuclear NF-kB; experiment: Live-cell imaging of IL1-induced nuclear FP-RelA (NF-kB) dynamics in U2OS cells; format: cell-based, human; conditions: 10 μM compound, 100 ng/mL IL1
Protocol: Live cells were imaged in an environmentally controlled chamber (37° C., 5% CO2) on a DeltaVision Elite microscope equipped with a pco.edge sCMOS camera and an Insight solid-state illumination module (GE). U2OS cells expressing FP-RelA/IKKγ were seeded at a density of 25000 cells/well 24 hours prior to live-cell imaging experiments on no. 1.5 glass bottom 96 well imaging plates (Matriplate). For imaging of FP-RelA nuclear translocation, live-cells were pre-treated with DMSO or indicated concentrations of compounds for 2 hours before exposure to either 100 ng/ml recombinant human TNF (Peprotech) or 100 ng/ml recombinant human IL1β (Peprotech). Wide-field epifluorescence and DIC images were collected using a 20× […] objective (0.45NA; Olympus). […] Quantification of nuclear FP-RelA localization and the formation IKKγ puncta from flat-field and background corrected images was performed using customized scripts in Matlab and ImageJ.
For permutation tests, data from the TNF-only and the indicated experimental condition were combined and randomly distributed into ‘Permuted control’ and ‘Permuted experimental’ bins without replacement, preserving the size of the original control and experimental data sets. 10^6 permutations were performed and the difference between the means of permuted control and experimental data were calculated for each condition to generate a histogram. […]

mature TNFR1 complex = experiment: Live-cell imaging of FP-IKK puncta in TNF-stimulated U2OS cells; format: cell-based, human; conditions: pretreated with compound before 100 ng/mL TNF
Protocol: (§1) Live cells were imaged in an environmentally controlled chamber (37° C., 5% CO2) on a DeltaVision Elite microscope equipped with a pco.edge sCMOS camera and an Insight solid-state illumination module (GE). U2OS cells expressing FP-RelA/IKKγ were seeded at a density of 25000 cells/well 24 hours prior to live-cell imaging experiments on no. 1.5 glass bottom 96 well imaging plates (Matriplate). For imaging of FP-RelA nuclear translocation, live-cells were pre-treated with DMSO or indicated concentrations of compounds for 2 hours before exposure to either 100 ng/ml recombinant human TNF (Peprotech) or 100 ng/ml recombinant human IL1β (Peprotech). Wide-field epifluorescence and DIC images were collected using a 20× […] objective (0.45NA; Olympus). Cells were imaged for at least 30 minutes prior to addition of compounds. For detection of IKKγ puncta, live-cells were pre-treated with DMSO or indicated concentration of compounds for 2 hours before exposure to 100 ng/ml TNF. Wide-field epifluorescence and DIC images were collected using a 60× […] objective. […] Time-lapse images were collected over at least 4 fields per condition with a temporal resolution of 5 minutes per frame. Quantification of nuclear FP-RelA localization and the formation IKKγ puncta from flat-field and background corrected images was performed using customized scripts in Matlab and ImageJ.

[3] = system: TNF-induced nuclear translocation of NF-kB; experiment: Live-cell imaging of TNF-induced nuclear FP-RelA (NF-kB) translocation in single U2OS cells; format: cell-based, human; conditions: for Maximum fold change (Max) of nuclear FP-RelA / area under the fold change curve (AUC) of nuclear FP-RelA: 10 μM compound pretreatment before addition of TNF; for potency in restricting the signaling network upstream of NF-kB activation: TNF-stimulated U2OS FP-RelA cells; for nuclear mobilization of NF-kB: U2OS FP-RelA cells pre-treated with compound before exposure to TNF
Protocol: Rep., 22:585-599 (2018)).
To quantify the compounds' effect on NF-kB dynamics, each single-cell trajectory was decomposed into a series of descriptors (FIG. 3c) that transmit information within the cell about extracellular cytokine concentrations (Zhang et al., Cell. Syst., 5:638-645 e635 (2017)).
as §1
For permutation tests, data from the TNF-only and the indicated experimental condition were combined and randomly distributed into ‘Permuted control’ and ‘Permuted experimental’ bins without replacement, preserving the size of the original control and experimental data sets. 10^6 permutations were performed and the difference between the means of permuted control and experimental data were calculated for each condition to generate a histogram. Two-tailed p-values were determined by computing the fraction of permuted data sets where Δmeanpermuted≥Δmeanunpermuted (FIGS. 12, 13, and 15).

IKKγ = experiment: Western blot of IKKγ expression in CRISPR-modified U2OS cells; format: cell-based, human; conditions: Actin-corrected band intensity
Protocol: U2OS cells (parental and expressing EGFP-RelA/IKKγ via CRISPR Knock-in) were cultured for 24 hrs in complete growth medium. After treatments, cells were lysed in SDS-based lysis buffer consisting of 120 mM Tris-Cl, pH 6.8, 4% SDS supplemented with protease and phosphatase inhibitors at 4° C. for 30 min. Protein extracts were clarified by centrifugation at 4° C. at 12,000×g for 10 min. Lysate protein levels were quantified by BCA assay (Pierce). Samples were separated by SDS-PAGE, 25 μg total protein per lane, then transferred to PVDF membranes. Blocking was done in 5% milk in TBS for 1 hour. Primary antibodies directed at RelA and β-actin (#4764 and #3700 respectively; Cell Signaling Technology), IKKγ and GAPDH (sc-8330 and sc25778 respectively; Santa Cruz) were diluted in 5% milk in TBS-T and incubated overnight at 4° C. Alexa 680/800-conjugated secondary antibodies (LICOR) were used in combination with an Odyssey (LI-COR) scanner for detection and quantification of band intensities.

full length TRAF2 = target: T2, full length TRAF2 (Homo sapiens, UniProt Q12933); experiment: Fluorescence-based thermal shift assay of TRAF2; format: binding; conditions: 1 uM GST-TRAF2, melt curve 25-99° C.
T2 construct: dose-dependent stabilizing effect on full length TRAF2; purchased Rockland
T2 sequence (Q12933 1-501): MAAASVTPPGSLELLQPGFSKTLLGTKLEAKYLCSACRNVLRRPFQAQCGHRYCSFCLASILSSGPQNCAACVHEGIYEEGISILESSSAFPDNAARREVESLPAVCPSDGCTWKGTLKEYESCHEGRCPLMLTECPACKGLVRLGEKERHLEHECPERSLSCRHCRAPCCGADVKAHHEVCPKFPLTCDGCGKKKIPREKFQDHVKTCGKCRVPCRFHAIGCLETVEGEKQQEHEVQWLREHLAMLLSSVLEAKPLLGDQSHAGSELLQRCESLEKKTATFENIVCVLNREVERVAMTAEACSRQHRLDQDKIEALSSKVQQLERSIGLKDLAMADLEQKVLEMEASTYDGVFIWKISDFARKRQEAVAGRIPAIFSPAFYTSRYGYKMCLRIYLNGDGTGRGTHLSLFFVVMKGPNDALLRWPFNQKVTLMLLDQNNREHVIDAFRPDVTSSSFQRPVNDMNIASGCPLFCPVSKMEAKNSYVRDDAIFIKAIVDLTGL
Protocol: To test whether the compounds interact with TRAF2 in vitro, the thermal stability of purified TRAF2 in the presence of each compound was measured.
TRAF2—compound interactions were measured by fluorescence-based thermal shift using an Applied Biosystems ABI QuantStudio(TM) 6 Flex System. […] PCR plates were covered with optical seal, shaken, and centrifuged after protein and compounds were added. The instrument was programmed in the Melt Curve mode and the Standard speed run. The reporter was selected as Rox and None for the quencher. Each melt curve was programmed as follows: 25° C. for 2 min, followed by a 0.05° C. increase per second from 25° C. to 99° C., and finally 99° C. for 2min. Fluorescence intensity was collected continuously. In the Melt Curve Filter section, X4 (580 ±10)-M4 (623±14) was selected for the Excitation Filter-Emission Filter. The raw data was extracted in MS-Excel format.

Question: What does the source list for `CC(C)CN1CCN(C(=O)COC(=O)c2ccc(S(C)(=O)=O)c([N+](=O)[O-])c2)CC1` [Compound 2]?
Answer: cytotoxicity (fraction of surviving cells) (U2OS cells): low cytotoxicity; IKKβ kinase activity [1]: not inhibited; inhibitory activity over IKKβ kinase activity [1]: no direct inhibitory activity; IL1-induced dynamics of nuclear NF-kB vs IL1-only control cells [2]: indistinguishable; number of TNF-induced FP-IKK puncta (mature TNFR1 complex): greatly reduced; Maximum fold change (Max) of nuclear FP-RelA [3]: significantly less; area under the fold change curve (AUC) of nuclear FP-RelA [3]: significantly less; potency in restricting the signaling network upstream of NF-kB activation [3]: low micromolar potency; nuclear mobilization of NF-kB [3]: reduced with increasing concentration; overall expression level of IKKγ (IKKγ): reduced; dose-dependent stabilizing effect on full length TRAF2 (thermal shift) (full length TRAF2): subtle

Question: With `CCC(OC(=O)c1ccc(S(C)(=O)=O)c([N+](=O)[O-])c1)C(=O)NC1C2CC3CC(C2)CC1C3` (stereo not shown) [Compound 3] as the compound, how does the “cytotoxicity (fraction of surviving cells)” value (U2OS cells) read?
Answer: Its value is “low cytotoxicity”.

Question: What about the IKKβ kinase activity [1] of the same compound?
Answer: Its IKKβ kinase activity is “not inhibited”.

Question: What about the “inhibitory activity over IKKβ kinase activity” value [1] of the same compound?
Answer: The value was “no direct inhibitory activity”.

Question: And the “IL1-induced dynamics of nuclear NF-kB vs IL1-only control cells” value [2]?
Answer: The value was “indistinguishable”.

Question: And the “number of TNF-induced FP-IKK puncta” value (mature TNFR1 complex)?
Answer: The value was “greatly reduced”.

Question: And the “Maximum fold change (Max) of nuclear FP-RelA” value [3]?
Answer: The value was “significantly less”.

Question: What about the “area under the fold change curve (AUC) of nuclear FP-RelA” value [3] of the same compound?
Answer: Its value is “significantly less”.

Question: And the “potency in restricting the signaling network upstream of NF-kB activation” value [3]?
Answer: Its value is “low micromolar potency”.

Question: What about the “nuclear mobilization of NF-kB” value [3] of the same compound?
Answer: The value was “reduced with increasing concentration”.

Question: And the “overall expression level of IKKγ” value (IKKγ)?
Answer: The value was “reduced”.

Question: And the “dose-dependent stabilizing effect on full length TRAF2 (thermal shift)” value (full length TRAF2)?
Answer: Its value is “moderate”.
